The data set in a line: Solubility of different forms of Rimonabant hydrochloride in solvents. As to conditions: at R.T. It counts as physicochemical. From the text: • All the forms were soluble in alcohols such as methanol, ethanol etc.

The record followed here is patent US20080234323A1, “Amorphous and Three Crystalline Forms of Rimonabant Hydrochloride” (priority 2005, published 2008).

Structures are written as SMILES.

For the compound `Cc1c(C(=O)NN2CCCCC2)nn(-c2ccc(Cl)cc2Cl)c1-c1ccc(Cl)cc1` [Form II, 5-(4-chlorophenyl)-1-(2,4-dichlorophenyl)-4-methyl-N-(piperidin-1-yl)pyrazole-3-carboxamide], the solubility in acetone entry is reported as “partly soluble” and the solubility in acetonitrile entry is given as “partly soluble”.
